Results as given in patent US12721343B2, “Methods and uses of a mixture comprising alpha-cypermethrin and dinotefuran for controlling invertebrate pests in t” (BASF AGRO B.V., priority 2020, dated 2026).

What was measured:
Format in all cases: in vivo
[1] = system: Black cut worm (Agrostis ypsilon, AGROYP); assay: Field bioassay with caged black cutworm larvae on putting green; conditions: for % Control / % activity: alpha-cypermethrin 47.5, dinotefuran 600, combination 47.5 + 190 g ai/ha; for Black Cutworm Counts (average surviving larvae per treatment per sample, 10 larvae/plot): 19 days after treatment, alpha-cypermethrin 47.5, dinotefuran 600, combination 47.5 + 190 g ai/hectare
Description: (§1) Synergism can be described as an interaction where the combined effect of two or more compounds is greater than the sum of the individual effects of each of the compounds. The presence of a synergistic effect in terms of percent control, between two mixing partners (X and Y) can be calculated using the Colby equation (Colby, S. R., 1967, Calculating Synergistic and Antagonistic Responses in Herbicide Combinations, Weeds, 15, 20-22):
The study was conducted on a creeping bentgrass/annual bluegrass putting green in a golf course. The study was a field bioassay where insect larvae were placed in cages at different intervals after applying insecticide treatments.
Applications were made to 4-foot by 6-foot plots replicated four times in 813 liter spray volume per hectare. Black cutworm (Agrostis ypsilon) larvae were caged in the turf at after the treatments were applied. Cages consisted of six-inch diameter metal cans. Two cages were inserted into each plot and five second-instar larvae were placed into each cage (total of 10 larvae/plot) before dusk. Window screen and a plastic louver were placed on top of the cages and held down with nails to secure the larvae. Larvae were caged for four days (96 hours) then a disclosing solution of 1 fl. oz. Joy Ultra dish soap in 1 gallon of water was used to flush surviving larvae 19 days after treatment.

[2] = system: Fall armyworm (Spodoptera frugiperda, LAPHFR); assay: Golf course trial against fall armyworm, soapy water flush counts; conditions: for % Control / % activity: alpha-cypermethrin 95, dinotefuran 600, combination 95 + 380 g ai/ha; for Fall Armyworm worm Counts (average per treatment per sample, 1-sq-ft): 28 days after treatment, alpha-cypermethrin 95, dinotefuran 600, combination 95 + 380 g ai/hectare
Description: as §1
This trial was conducted at a golf course in an area planted with Hybrid bermudagrass, cv. ‘419’, with natural infestation of fall armyworm. The trial was laid out in 6 replications with each plot measuring 20×25 ft. Applications were made in a spray volume of 203 liters per hectare. The fall armyworms were about second or third instar when found. Fall armyworm density assessment was conducted as soapy water flush. About one gallon of soapy water was poured into an area marked with a 1-sq-ft PVC pipe square. Fall armyworms surfaced within 5 minutes and were counted in each 1-sq-ft area. Fall armyworm densities in a total of three squares (or 3 subsamples) were determined in each plot at each sampling data. Assessments were conducted at 28 days after treatment.

[3] = system: Japanese beetle grub (Popillia japonica, POPIJA); assay: Turf plot trial against Japanese beetle grubs, grub counts in soil cores; conditions: 85 DAT; for % Control / % activity: alpha-cypermethrin 95, dinotefuran 600, combination 95 + 380 g ai/ha; for Japanese Beetle Grub Counts (average per treatment per sample): alpha-cypermethrin 95, dinotefuran 600, combination 95 + 380 g ai/hectare
Description: as §1
The trial was conducted in plots consisting of a mix of Poa pratensis (~10%)—Lolium perenne (~60%)—Festuca arundinacea (~10%), and Agrostis stolonifera (<10%). Treatments were arranged in a randomized complete block design and replicated four times. Each replicate consisted of 3 arenas (~150 in^2). Each replicate was contained within a turfgrass plot measuring 9 ft^2. Treatments were applied in 813 liter/hectare spray volume.
To obtain consistent densities of white grub larvae, Japanese beetles (Popillia japonica) were captured in pheromone traps and seeded into the arenas to mate and oviposit.
20 males and 20 females were placed into 8 inch diameter PVC arenas (height=6 inch). The arena was driven 1 inch into the ground and fit with a mesh covering (324 openings/in2) to prevent beetles from escaping. After 3 days, the mesh coverings were removed, beetles removed, and 40 new beetles (20 males and 20 females) were placed into the arenas, followed by a third introduction. Nineteen days after the initial infestation date, the arenas were dismantled, and the turf was maintained as normal. Turf paint was used to mark the edges of turf where the arenas were located and reapplied as necessary.
White grub suppression was assessed 85 DAT by comparing the densities of grubs in treated and untreated plots. Three soil cores (total area=150 in2) were removed from each plot where the arenas were located using a large golf course cup cutter. Core soils were examined visually, by breaking the soil over a tray and looking for grubs (while in the field). The number of white grubs was pooled for the arenas in each replicate. Japanese beetle larvae present at time of evaluation (98.4%) were a mix of 2nd (42%) and 3rd (58%) instars.

[4] = system: Fall armyworm, Spodoptera frugiperda (LAPHFR); assay: Fall armyworm feeding damage on creeping bentgrass fairway; conditions: for % Reduction / % activity: alpha-cypermethrin 95, dinotefuran 600, combination 95 + 380 g ai/ha; for Fall Armyworm damage (%) (average feeding damage): five days after treatment, two applications, alpha-cypermethrin 95, dinotefuran 600, combination 95 + 380 g ai/hectare
Source text: as §1
A trial was established on a mature ‘L-93’ creeping bentgrass fairway. An initial application was made with a repeat application 8 days later. Fall armyworms were artificially infested at the test site eight hours after the second application. Ten living caterpillars were added to each plot and were protected within a PVC ring. Plots were rated five days after treatement for percent damage by caterpillar feeding within the ring area.

[5] = system: Southern Chinch Bug (Blissus insularis, BLISIN); assay: Field trial against Southern chinch bug, nymph counts by vacuum sampling; conditions: for % Control / % activity: alpha-cypermethrin 95, dinotefuran 600, combination 95 + 380 g ai/ha; for Nymph Counts (average number of Chinch bug nymphs per treatment per sample): 28 days after treatment, alpha-cypermethrin 95, dinotefuran 600, combination 95 + 380 g ai/hectare
Source text: as §1
Treatments were applied in a field with a natural infestation of Southern Chinch Bugs. The experiment was conducted with four replications, utilizing 3×3 m2 plots. The application was made in 813 liters per hectare spray volume.
The treatments consisted of an untreated check, and formulations containing either alpha-cypermethrin at a use rate of 95 grams ai/hectare, dinotefuran at 600 gram ai/hectare or a combination of alpha-cypermethrin and dinotefuran at 95+380 grams ai/hectare. Direct visual counts were made of larval chinch bugs in all stages of development after being mechanically vacuumed for 20 seconds from the surface of the turf. Chinch Bug abundance was measured using a commercially available lawn vacuum/blower combination machine by covering the vacuum (intake) orifice with mesh cloth and placing the intake on randomly within the turf plot and holding suction for […]. Samples were collected from each plot in an identical manner. After the sample was collected and the vacuum turned off, the captured contents of the mesh cloth were tapped into a 5-gallon plastic bucket for ease of counting of nymphs (at any instar).
The following average numbers of chinch bug nymphs were collected per sample per treatment 28 days after the insecticide applications were made.

[6] = system: Sod webworm (Herpetogramma phaeopteralis, PACYPH); assay: Field trial against sod webworm, larvae counts; conditions: for % Control / % activity: alpha-cypermethrin 47.5, dinotefuran 600, combination 47.5 + 190 g ai/ha; for Sod Webworm Counts (average number of larvae per treatment per sample): 7 days after treatment, alpha-cypermethrin 47.5, dinotefuran 600, combination 47.5 + 190 g ai/hectare
Source text: as §1
Treatments were applied with a natural infestation of sod webworm. The experiment was conducted in four replications, utilizing 3×3 m2 plots. One application was made in 813 liters per hectare spray volume. po The treatments consisted of an untreated check, formulations of either alpha-cypermethrin at a use rate of 47.5 grams ai/hectare, dinotefuran at 600 gram ai/hectare or a combination of alpha-cypermethrin and dinotefuran at 47.5+190 grams ai/hectare.
Direct visual counts were made of sod webworm larvae in each plot 7 days after treatment.

[7] = system: Masked chafer grub, Cyclocephala spp. (CYCCSP); assay: Perennial ryegrass plot trial against masked chafer grubs (seeded adults), live grub counts; conditions: for % Control / % activity: alpha-cypermethrin 95, dinotefuran 600, combination 95 + 380 g ai/ha; for Masked Chafer grub counts (average live grubs per treatment per sample): 4 days after treatment, alpha-cypermethrin 95, dinotefuran 600, combination 95 + 380 g ai/hectare
Description: as §1
The study was conducted on perennial ryegrass. Individual plots were 6 ft×6 ft and arranged in a randomized complete block design with 4 replications. Adult Cyclocephala spp. (masked chafer) were collected when active and immediately placed inside covered PVC rings on each plot. Approximately 50 adult masked chafers were added to each plot throughout the active adult stage. The rings were removed 24-36 hours after insecticide application. After the treatment, the plots were irrigated immediately with approximately 0.125″ of water. Treatments were applied in water equivalent to 813 liters/hectare. The number of live grub larvae was assessed 4 days after treatment by removing a two-foot strip of sod cut to a […] each plot (12 ft2 per plot).

[8] = system: Masked chafer (Cyclocephala spp., CYCCSP); assay: Turf trial against masked chafer grubs (Kentucky Bluegrass, natural infestation), larvae counts; conditions: for % Control / % activity: alpha-cypermethrin 95, dinotefuran 600, combination 95 + 380 g ai/ha; for Masked Chafer Grub Counts (average per treatment per sample, per 1 sq. ft.): 62 days after treatment, alpha-cypermethrin 95, dinotefuran 600, combination 95 + 380 g ai/hectare
Description: as §1
The trial was conducted with Kentucky Bluegrass as main turf variety, with a natural infestation of masked chafer grubs. Treatments were arranged in a randomized complete block design and replicated four times in plots measuring 24 ft^2.
Treatments were applied in 813 liter/hectare spray volume.
White grub control was determined by larvae counts 62 days after treatment. A sod cutter cut a strip down the center of each replicate and a shovel cut the stirp into a small square in the middle of each plot. The number of larvae in each 1 sq. ft. were counted.

[9] = 28 DAT, calculated from solo rates 95 and 600 g ai/ha

Row | Compound | % Control / % activity ([1]; 19 DAT) | Black Cutworm Counts (average surviving larvae per treatment per sample, 10 larvae/plot) [1] | % Control / % activity ([2]; 28 DAT) | Fall Armyworm worm Counts (average per treatment per sample, 1-sq-ft) [2] | % Control / % activity [3] | Japanese Beetle Grub Counts (average per treatment per sample) [3] | % Reduction / % activity ([4]; 5 DAT) | Fall Armyworm damage (%) (average feeding damage) [4] | % Control / % activity ([5]; 28 DAT) | Nymph Counts (average number of Chinch bug nymphs per treatment per sample) [5] | % Control / % activity ([6]; 7 DAT) | Sod Webworm Counts (average number of larvae per treatment per sample) [6] | % Control / % activity ([7]; 4 DAT) | Masked Chafer grub counts (average live grubs per treatment per sample) [7] | % Control / % activity ([8]; 62 DAT) | Masked Chafer Grub Counts (average per treatment per sample, per 1 sq. ft.) [8] | other results
1 | CC1(C)C(C=C(Cl)Cl)C1C(=O)OC(C#N)c1cccc(Oc2ccccc2)c1 (racemic) [Alpha-cypermethrin, racemate comprising (R)-α-cyano-3-phenoxybenzyl (1S, 3S)-3-(2,2-dichlorovinyl)-2,2-dimethylcyclopropanecarboxy late; (S)-α-cyano-3-phenoxybenzyl (1R, 3R) (2,2-dichlorovinyl)-2,2-dimethylcyclopropanecarboxylate] | 80% | 1.75 | 57% | 1.39 | 0% | 2.25 | 94% | 1.25% | 81% | 6.0 | 57% | 2.5 | 18% | 18.5 | 91% | 0.25 | expected % activity (Colby) ([1]; 19 DAT, calculated from solo rates 47.5 and 600 g ai/ha): 83%; expected % activity (Colby) [2, 9]: 58%; expected % activity (Colby) ([3]; calculated from solo rates 95 and 600 g ai/ha): 0%; expected % activity (Colby) ([4]; 5 DAT, calculated from solo rates 95 and 600 g ai/ha): 98%; expected % activity (Colby) [5, 9]: 96%; expected % activity (Colby) ([6]; 7 DAT, calculated from solo rates 47.5 and 600 g ai/ha): 87%; expected % activity (Colby) ([7]; 4 DAT, calculated from solo rates 95 and 600 g ai/ha): 29%; expected % activity (Colby) ([8]; 62 DAT, calculated from solo rates 95 and 600 g ai/ha): 97%
2 | CNC(=N[N+](=O)[O-])NCC1CCOC1 (racemic) [Dinotefuran, (RS)-1-methyl-2-nitro-3-(tetrahydro-3-furylmethyl) guanidine] | 17% | 7.25 | 2% | 3.17 | 0% | 2.00 | 75% | 5.00% | 81% | 5.8 | 60% | 2.3 | 13% | 19.5 | 64% | 1.00 | 
